Where two headings read alike, the source gives them in different places.
Legend:
[1] = system: DAUDI human leukemic cell line; assay: In vitro antitumor activity assay (SRB), Daudi; assay type: cell-based; conditions: 72 h, Table 3
From the text: (§1) HeLa human cervical carcinoma cell line, A-549 human non-small cell lung carcinoma cell line, NCI-H2228 human lung carcinoma cell line, NCI-H460 human lung carcinoma cell line, MDA-MB-231 human breast carcinoma cell line, MCF-7 human breast carcinoma cell line, Bel-7402 human hepatic carcinoma cell line, Hep3B human hepatic carcinoma cell line, QGY-7703 human hepatic carcinoma cell line, MV-4-11 human leukemic cell line, DAUDI human leukemic cell line, Jurkat human leukemic cell line, A498 renal carcinoma cell line, LoVo human colon carcinoma cell line, HCT1116 human colon carcinoma cell line, A431 human skin carcinoma cell line, PANC-1 human pancreatic carcinoma cell line, U87-MG human brain carcinoma cell line, SH-SY5Y human brain carcinoma cell line, RPMI-8226 human bone carcinoma cell line, HT1080 human fibrosarcoma cell line, PC-3 human prostatic carcinoma cell line, AGS human gastric adenocarcinoma cell line, and BGC-823 human gastric adenocarcinoma cell line were purchased from the Cell Bank of the Chinese Academy of Sciences.
(§2) The positive control is bufalin (formulated according to the common method), its purity is 98% or more by HPLC-UV and its structure is identified by NMR. The compounds to be tested and the positive control were diluted with normal saline with a concentration gradient of 10^−4 M, 10^−5 M, 10^−6 M, 10^−7 M and 10^−8 M.
(§3) According to cell growth rate, tumor cells in the log phase of growth were seeded into 96-well culture plates at 100 μL per well, and allowed to attach for 24 hours, followed by addition of a test compound or positive control at 10 μL per well. For each concentration, the test was carried out in triplicate wells. […] Finally, Tris solution was added at 150 μL per well, and the absorbance (A) was measured at a wavelength of 515 nm using a microplate reader. The growth inhibition on tumor cell proliferation was calculated according to the following equation:
(§4) Growth Inhibition (%)=[(Absorbance of negative control−Absorbance of blank)−(Absorbance of sample−Absorbance of blank)]/(Absorbance of negative control−Absorbance of blank)×100% […]

[2] = system: BGC-823 human gastric adenocarcinoma cell line; assay: In vitro antitumor activity assay (SRB), BGC-823; assay type: cell-based; conditions: BGC-823, 72 h, Table 3
From the text: as §1, §2, §3, §4

[3] = system: QGY-7703 human hepatic carcinoma cell line; assay: In vitro antitumor activity assay (SRB), QGY7703; assay type: cell-based; conditions: QGY7703, 72 h, Table 3
From the text: as §1, §2, §3, §4

[4] = In vivo acute toxicity assay in mouse; conditions: for LD50: in vivo, ip
Method: Sample Name: bufalin, II1E-01.HCl
35.8 mg of II1E-01.HCl was weighted, added with 1.78 mL of anhydrous ethanol, and dissolved completely under ultrasonication. 16.02 mL of 5% glucose injection was added and agitated homogeneously. The solution was filtered with a 0.2 μm filtration membrane to obtain a stock solution with a concentration of 2 mg/mL, wherein the content of ethanol is 10%. The highest dosage is 20 mg/kg, calculated based on the administration volume of 0.1 mL/10 g body weight of mouse.

[5] = system: HCT-116 human-derived tumor cell line; assay: In vitro antitumor activity assay (SRB), HCT-116; assay type: cell-based; conditions: HCT-116, 72 h, Table 3
From the text: as §1, §2, §3, §4

[6] = system: A431 human skin carcinoma cell line; assay: In vitro antitumor activity assay (SRB), A431; assay type: cell-based; conditions: A431, 72 h, Table 3
From the text: as §1, §2, §3, §4

[7] = system: Hep3B human hepatic carcinoma cell line; assay: In vitro antitumor activity assay (SRB), Hep3B; assay type: cell-based; conditions: 72 h, Table 3
From the text: as §1, §2, §3, §4

[8] = Maximum tolerable dosage (basis of dosage selection); conditions: in vivo
Method: After the tumor size reaches about 200 mm^3, the mice bearing the tumor were grouped randomly into 8 groups according to the tumor size, including the groups of solvent control, positive control rapamycin 5 mg/kg, II1E-01.HCl 2 mg/kg, II1E-01.HCl 4 mg/kg, II1E-01.HCl 6 mg/kg, II1B-02.HCl 4 mg/kg, II1D-06.HCl 4 mg/kg, bufalin 1.6 mg/kg, wherein the dosage selection is based on that the maximum tolerable dosage is 1.6 mg/kg for bufalin and 6 mg/kg for II1E-01.HCl. Rapamycin was administered intravenously once a week (QW) and the other groups were administered intraperitoneally once every other day (QOD). The tumor was weighted after 21 days to calculate the inhibition rate. The equation for calculating inhibition rate (IR) is IR=(WC−WT)/WC×100%, wherein, WC represents the tumor weight of the control group, and WT represents the tumor weight of the treating group.

[9] = system: A-549 human non-small cell lung carcinoma cell line; assay: In vitro antitumor activity assay (SRB), A549; assay type: cell-based
From the text: as §1, §2
According to cell growth rate, tumor cells in the log phase of growth were seeded into 96-well culture plates at 100 μL per well, and allowed to attach for 24 hours, followed by addition of a test compound or positive control at 10 μL per well. For each concentration, the test was carried out in triplicate wells. Solvent control wells with addition of normal saline into cell culture and a blank well containing only cell culture medium but without cells for zeroing were also included. The tumor cells were incubated for 72 hours at 37° C. under 5% CO2, and then the culture medium (RPMI-1640) was removed. The cells were fixed with 10% cool TCA by incubating for 1 h at 4° C., washed with distilled water for 5 times, and dried naturally in the air. A solution of SRB (Sigma) (4 mg/mL) in 1% glacial acetic acid was added at 100 μL per well, and the cells were stained for 15 minutes at room temperature, and the supernatant was discarded. The plates were washed for 5 times with 1% acetic acid, and dried in air. Finally, Tris solution was added at 150 μL per well, and the absorbance (A) was measured at a wavelength of 515 nm using a microplate reader. The growth inhibition on tumor cell proliferation was calculated according to the following equation:
Growth Inhibition (%)=[(Absorbance of negative control−Absorbance of blank)−(Absorbance of sample−Absorbance of blank)]/(Absorbance of negative control−Absorbance of blank)×100%
Drug concentration: 10 μM, 1 μM, 0.1 μM, 10 nM, 1 nM, 0.1 nM.
IC50 was fitted by GraphPad Prism 4.

[10] = system: MDA-MB-231 human breast carcinoma cell line; assay: In vitro antitumor activity assay (SRB), MDA-MB-231; assay type: cell-based; conditions: MDA-MB-231, 72 h, Table 3
From the text: as §1, §2, §3, §4

[11] = system: RPMI-8226 human bone carcinoma cell line; assay: In vitro antitumor activity assay (SRB), RPMI8226; assay type: cell-based; conditions: RPMI8226, 72 h, Table 3
From the text: as §1, §2, §3, §4

[12] = system: Jurkat human leukemic cell line; assay: In vitro antitumor activity assay (SRB), Jurkat; assay type: cell-based; conditions: 72 h, Table 3
From the text: as §1, §2, §3, §4

## C[C@]12CC[C@H](OC(=O)NC3CCNCC3)C[C@H]1CC[C@@H]1[C@@H]2CC[C@]2(C)[C@@H](c3ccc(=O)oc3)CC[C@]12O.Cl [II1E-01•HCl]
[1]
  IC50: 2.34 ± 0.22 nM
[2]
  IC50: 0.56 ± 0.07 nM
[3]
  IC50: 1.72 ± 0.08 nM
[4]; intraperitoneal, female mouse
  LD50 of intraperitoneal administration, female mouse: about 18.21 mg/kg
[4]; intraperitoneal, male mouse
  LD50 of intraperitoneal administration, male mouse: about 14.75 mg/kg
[4]; intravenous, female mouse
  LD50 of intravenous administration, female mouse: about 16.51 mg/kg
[4]; intravenous, male mouse
  LD50 of intravenous administration, male mouse: about 13.60 mg/kg
[4]; mouse
  in vivo acute toxicity in mouse compared with bufalin, in words: lower in vivo acute toxicity in mouse than bufalin
[5]
  IC50: 2.13 ± 0.28 nM
[6]
  IC50: 3.31 ± 0.09 nM
[7]
  IC50: > 1000 nM
[8]
  maximum tolerable dosage: 6 mg/kg
[9]; A549, 72 h, Table 3, read-out: IC50 (72 h), A549
  IC50: 0.4 ± 0.22 nM
[10]
  IC50: 7.31 ± 0.21 nM
[11]
  IC50: 1.71 ± 0.03 nM
[12]
  IC50: 0.67 ± 0.1 nM

## C[C@]12CC[C@H](O)C[C@H]1CC[C@@H]1[C@@H]2CC[C@]2(C)[C@@H](c3ccc(=O)oc3)CC[C@]12O [bufalin, reference compound]
[1]; Homo sapiens
  IC50: 12.6 ± 0.76 nM
[2]; Homo sapiens
  IC50: 9.06 ± 0.37 nM
[3]; Homo sapiens, QGY-7703
  IC50: 12.8 ± 0.47 nM
[4]; intraperitoneal, female mouse, read-out: LD50 of intraperitoneal administration, female mouse
  LD50: ~2.8 mg/kg
[4]; intraperitoneal, male mouse, read-out: LD50 of intraperitoneal administration, male mouse
  LD50: ~2.4 mg/kg
[5]; Homo sapiens
  IC50: 9.69 ± 0.64 nM
[6]; Homo sapiens, A-431
  IC50: 26.6 ± 5.35 nM
[7]; Homo sapiens
  IC50: > 1000 nM
[8]; mouse
  maximum tolerable dosage: 1.6 mg/kg
[9]; Homo sapiens, A549, 72 h, Table 3, read-out: IC50 (72 h), A549
  IC50: 8.74 ± 2.52 nM
[9]; Homo sapiens, A549, Table 2, read-out: IC50, inhibition of cell proliferation, A549
  IC50: 6.53 ± 1.64 nM
[10]; Homo sapiens
  IC50: 28.7 ± 1.66 nM
[11]; Homo sapiens, RPMI-8226
  IC50: 13.5 ± 0.82 nM
[12]; Homo sapiens
  IC50: 8.79 ± 2.48 nM
